According to US20230312561A1, “SOLID FORMS OF (Z)-METHYL 3-(((4-(N-METHYL-2-(4-METHYLPIPERAZIN-1-YL)ACETAMIDO)PHENYL)AMINO)(PHENYL)METHYLENE)-2-OXO-2,3-DIHYDRO-1H-PYRROLO[2,3-B]PYRIDINE-6-CARBOXYLATE AND SALTS THEREOF” (Angion Biomedica Corp., priority 2020, published 2023):

Columns and labels:
Assay type in all cases: physicochemical
[1] = Solid state stability under desiccant conditions (two weeks)
Description: Stability of Compound 1 Hydrochloride Forms A and C was evaluated under desiccant conditions. Compound 1 Hydrochloride Form A (Type 1 Lot) and a mixture comprising Compound 1 Hydrochloride Form A (Type 2 Lot) and Form C were stored under desiccant conditions for a two week period. Solids were then re-analyzed using methods described herein.

[2] = Biorelevant solubility (water, saline, FaSSIF, FeSSIF, FaSSGF, 37° C.)
Description: Due to pH drift in a previous study (see Example 12.1), in order to obtain a more accurate pH solubility evaluation, a study was designed using water, saline, FaSSIF (fasted state simulated intestinal fluid, pH 6.5), […] (fed state simulated intestinal fluid, pH 5.0), and FaSSGF (fasted state simulated gastric fluid, pH 1.6), which would ensure ending pH and buffer pH remained the same. […] The study design was successful, and all initial pH values were maintained. […] The pH was measured constantly during the addition up to the point of movement in the buffer, at which point additions were halted and the solutions or suspensions matured over 48 hours at 37° C. Samples were taken for solubility evaluation at the specified time-points and clarified through 0.45 micron filters and pH measured on the settled suspensions. Solubility was determined vs a 0.5 mg/mL reference. 35 mg portions were added to FaSSGF and FeSSIF maintaining solutions.

[3] = Dynamic Vapor Sorption (DVS) analysis with XRPD after equilibration
Description: Sorption isotherms were obtained using a Hiden Isochema moisture sorption analyzer (model IGAsorp), controlled by IGAsorp Systems Software V6.50.48. The sample was maintained at a constant temperature (25° C.) by the instrument controls. The humidity was controlled by mixing streams of dry and wet nitrogen, with a total flow of 250 mL·min^−1. The instrument was verified for relative humidity content by measuring three calibrated Rotronic salt solutions (10%, 50%, 88%). The weight change of the sample was monitored as a function of humidity by a microbalance (accuracy+/−0.005 mg). A defined amount of sample was placed in a tared mesh stainless steel basket under ambient conditions. A full experimental cycle typically consisted of three scans (sorption, desorption and sorption) at a constant temperature (25° C.) and 10% RH intervals over a 0-90% range (60 minutes for each humidity level). […]
This water content decreased as relative humidity decreased in the first desorption cycle.
The solid absorbed 3.39% water over the humidity range. […] The profile was similar to that of Form C in Example 7.2.

[4] = Drying studies of Compound 1 Hydrochloride (XRPD, TGA)
Description: Compound 1 Hydrochloride Form A was then subjected to drying under various conditions.
Drying studies of Compound 1 Hydrochloride Form A (Type 1 Lot) were performed.
Variability in the drying profiles of different lots of Compound 1 Hydrochloride were noted, particularly with regards to the transition between Form A and Form C. The variable behavior appeared to depend upon the nature of the input Form A batch (e.g., how it was generated and then conditioned, if at all, prior to drying, and/or if excess hydrochloric acid was present).
Concentrated HCl (154 μL, 1 eqiuv) was added which clarified the suspension to a deep orange solution. The mixture was equilibrated for 30 minutes before cooling gradually to room temperature. A thin yellow suspension resulted. The solvent volume was reduced by 50% which thickened the suspension. The suspension was matured overnight, following which the solid was filtered to isolate the solids. The solid was air dried for ˜30 minutes giving a yellow solid (damp mass: 1.24 g; pH measured at 5.0). The XRPD pattern of the damp solid corresponded with Compound 1 Hydrochloride Form H. Analysis of the damp solid by DSC and TGA indicated a water content of 8.2%, which was fairly labile up ˜75° C.
Compound 1 Hydrochloride Form H was then subjected to a drying study under various conditions.
The solids were further subjected to prolonged drying.

[5] = Solid state stability in sealed vial (XRPD, TGA, HPLC)
Description: High performance liquid chromatography (HPLC) was performed according to the conditions described in Table 1: […] Upon storage for the appropriate period, the entire sample was removed, and the resulting solids assessed via XRFD, HPLC and TGA. Sample preparation for HPLC was conducted using deionized water and a working concentration of 0.5 mg/mL. […] A control sample was packed and stored in an equivalent manner and tested at T=2 and 4 weeks. Form A was stable at 40° C. and 80° C. for at least up to 4 weeks.

[6] = Dry in vacuo at 25° C., T = 24 h
[7] = Dry in vacuo at 25° C., T = 96 h
[8] = Dry in vacuo at 25° C., T = 120 h
[9] = Dry in vacuo at 45° C., T = 24 h
[10] = Dry in vacuo at 45° C., T = 96 h
[11] = Dry in vacuo at 45° C., T = 120 h
[12] = Dry in vacuo at 70° C., T = 24 h
[13] = Dry in vacuo at 70° C., T = 96 h
[14] = Dry in vacuo at 70° C., T = 120 h
[15] = 40° C., sealed vial, T = 1 week
[16] = 40° C., sealed vial, T = 2 weeks
[17] = 40° C., sealed vial, T = 4 weeks
[18] = 80° C., sealed vial, T = 1 week
[19] = 80° C., sealed vial, T = 2 weeks
[20] = 80° C., sealed vial, T = 4 weeks
[21] = 150° C., sealed vial, T = 1 week

SMILES: COC(=O)c1ccc2c(c1)NC(=O)/C2=C(\Nc1ccc(N(C)C(=O)CN2CCN(C)CC2)cc1)c1ccccc1.Cl [Compound 1 Hydrochloride Form A (Type 1 Lot)]
- Appearance After Storage [1]: Yellow powder
- TGA weight reduction [1]: Weight reduction of 5.6%
- XRPD [1]: Form A
- solubility in saline [2]: > 50 mg/mL
- solubility in water [2]: > 50 mg/mL
- Final pH ([2]; 0.9% NaCl): 3.03
- Solubility (mg/mL) T = 1 h ([2]; 0.9% NaCl): >50 mg/mL
- Solubility (mg/mL) T = 3 h ([2]; 0.9% NaCl): >50 mg/mL
- Solubility (mg/mL) T = 6 h ([2]; 0.9% NaCl): >50 mg/mL
- Solubility (mg/mL) T = 24 h ([2]; 0.9% NaCl): >50 mg/mL
- Final pH ([2]; FaSSGF (starting pH 1.6)): 1.65
- Solubility (mg/mL) T = 1 h ([2]; FaSSGF (starting pH 1.6)): >35 mg/mL
- Solubility (mg/mL) T = 3 h ([2]; FaSSGF (starting pH 1.6)): >35 mg/mL
- Solubility (mg/mL) T = 6 h ([2]; FaSSGF (starting pH 1.6)): >35 mg/mL
- Solubility (mg/mL) T = 24 h ([2]; FaSSGF (starting pH 1.6)): >35 mg/mL
- Final pH ([2]; FaSSIF (starting pH 6.5)): 6.13
- Solubility (mg/mL) T = 1 h ([2]; FaSSIF (starting pH 6.5)): 2.41 mg/mL
- Solubility (mg/mL) T = 3 h ([2]; FaSSIF (starting pH 6.5)): 3.38 mg/mL
- Solubility (mg/mL) T = 6 h ([2]; FaSSIF (starting pH 6.5)): 3.74 mg/mL
- Solubility (mg/mL) T = 24 h ([2]; FaSSIF (starting pH 6.5)): 5.12 mg/mL
- Final pH ([2]; FeSSIF (starting pH 5.0)): 4.98
- Solubility (mg/mL) T = 1 h ([2]; FeSSIF (starting pH 5.0)): >35 mg/mL
- Solubility (mg/mL) T = 3 h ([2]; FeSSIF (starting pH 5.0)): >35 mg/mL
- Solubility (mg/mL) T = 6 h ([2]; FeSSIF (starting pH 5.0)): >35 mg/mL
- Solubility (mg/mL) T = 24 h ([2]; FeSSIF (starting pH 5.0)): >35 mg/mL
- Final pH ([2]; Water): 3.04
- Solubility (mg/mL) T = 1 h ([2]; Water): >50 mg/mL
- Solubility (mg/mL) T = 3 h ([2]; Water): >50 mg/mL
- Solubility (mg/mL) T = 6 h ([2]; Water): >50 mg/mL
- Solubility (mg/mL) T = 24 h ([2]; Water): >50 mg/mL
- solubility in FeSSIF ([2]; pH 5.0): > 50 mg/mL
- XRPD across the humidity range over the course of DVS analysis ([3]; 0-90% RH): Form A remained
- water absorbed over the humidity range (DVS) ([3]; 25° C., 0-90% RH): 13.4 wt %
- reversibility of water uptake (DVS) ([3]; as relative humidity decreased): reversible
- water uptake (DVS) ([3]; high humidity, comparison stated in Example 7.3): above 13%
- water uptake up to 30% RH (DVS) ([3]; up to 30% RH): 8.5 wt %
- TGA (%) [4, 6]: 11.12%
- XRPD [4, 6]: Form A
- TGA (%) [4, 7]: 10.14%
- XRPD [4, 7]: Form A
- TGA (%) [4, 8]: 10.47%
- XRPD [4, 8]: Form A
- TGA (%) [4, 9]: 9.84%
- XRPD [4, 9]: Form A
- TGA (%) [4, 10]: 8.71%
- XRPD [4, 10]: Form A
- TGA (%) [4, 11]: 10.19%
- XRPD [4, 11]: Form A
- TGA (%) [4, 12]: 10.48%
- XRPD [4, 12]: Form A
- TGA (%) [4, 13]: 8.19%
- XRPD [4, 13]: Form A
- TGA (%) [4, 14]: 10.85%
- XRPD [4, 14]: Form A
- TGA (%) ([4]; T = 0, before drying): 9.673%
- solid state stability in sealed vial ([5]; 40° C. and 80° C., at least up to 4 weeks): stable
- HPLC (%) [5, 15]: 99.43%
- TGA (%) [5, 15]: 12.01%
- HPLC (%) [5, 16]: 99.43%
- TGA (%) [5, 16]: 12.15%
- HPLC (%) [5, 17]: 99.65%
- TGA (%) [5, 17]: 11.6%
- XRPD [5, 17]: Form A
- HPLC (%) [5, 18]: 99.53%
- TGA (%) [5, 18]: 3.76%
- HPLC (%) [5, 19]: 99.45%
- TGA (%) [5, 19]: 3.71%
- HPLC (%) [5, 20]: 99.59%
- TGA (%) [5, 20]: 3.35%
- HPLC (%) [5, 21]: 36.6%
- TGA (%) [5, 21]: 1.14%
- HPLC (%) ([5]; Ambient (control), T = 0): 99.54%
- TGA (%) ([5]; Ambient (control), T = 0): 12.07%
- HPLC (%) ([5]; Ambient (control), T = 2 weeks): 99.43%
- TGA (%) ([5]; Ambient (control), T = 2 weeks): 11.99%
- HPLC (%) ([5]; Ambient (control), T = 4 weeks): 99.53%
- TGA (%) ([5]; Ambient (control), T = 4 weeks): 12.15%
- XRPD ([5]; Ambient (control), T = 4 weeks): Form A
